In assay [1] the target is 5-hydroxytryptamine receptor 1A (Bos taurus). As to the kind of experiment: Binding affinity against 5-hydroxytryptamine 1A receptor from bovine hippocampus, used [3H]8-OH-DPAT as radioligand.
Experiment in assay [2]: as above

The structures appear in SMILES notation.

Broadly, the Ki is the equilibrium dissociation constant of an inhibitor or competing ligand from its target. In turn, `Cc1[nH]c2cccc3c2c1C[C@@H]1C3C[C@H](NC(=O)C(C)(C)C)CN1C` (some centres not stated) [SDZ-208-911] displayed an inhibition constant Ki in assay [1] of 19 nM.
Take `CCCN1CC[C@H]2c3c(cccc3OC)CC[C@H]21` [(3aS,9bR) 9-Methoxy-3-propyl-2,3,3a,4,5,9b-hexahydro-1H-benzo[e]indole]: in assay [2], the Ki came out at 4.4 nM.
